Results as given in patent US11974571B1, “3-5-dinitro-N-(pyrimidin-2-ylcarbamothioyl)benzamide as an eco-friendly insecticidal agent against Spodoptera littoralis (boisd.)” (KING FAISAL UNIVERSITY, priority 2023, dated 2024).
≈ marks a conversion by molar mass, not a printed value. Where two headings read alike, the source gives them in different places.

Tested on: Spodoptera littoralis
Experiment: Insecticidal bioassay screening (castor leaf dip), laboratory strain of cotton leafworm
Assay type: in vivo
Conditions: for Toxicity index %: 72 hrs, Diflubenzuron's LC50 / the compound's LC50 × 100; for LC50: Spodoptera littoralis, foliar, 72 h
Method: Five concentrations (200, 100, 50, 25, 12.5 ppm) were designed for this synthetic compound and the reference Diflubenzuron compound as the dynamic ingredients based on mg/L via diluting the commercial formulation.
[…] Larvae of the second and fourth instars of each checked strain are prepared with treated leaves in gauze-covered glass containers for 72 hrs. An untreated control is made in which leaves are dipped in triton x-100 and distilled water only. Then the preserved leaves were removed & fresh, untreated leaves were provided for 72 hours. Three replicates (10 larvae each) were checked for each concentration. Daily inspection was carried out for all treatments and mortality percentages were recorded 3 days (72 hours) after treatment. The average mortality percentage was corrected employing Abbott's formula. The corrected mortality rate for each of the previously synthesized compounds is statistically calculated according to Finney (1970). Through this rate, the corresponding concentration test lines (LDP lines) are assessed.

[1] = 2nd instar larvae, laboratory strain, after 72 hrs of treatment
[2] = 4th instar larvae, laboratory strain, after 72 hrs of treatment
[3] = read-out: LC50 (mg/L) at 95%, 2nd instar larvae, laboratory strain, after 72 hrs of treatment
[4] = read-out: LC50 (mg/L) at 95%, 4th instar larvae, laboratory strain, after 72 hrs of treatment

| SMILES | Toxicity index % (2nd instar larvae) | LC90 (mg/L) at 95% [1] | Toxicity index % (4th instar larvae) | LC90 (mg/L) at 95% [2] | LC50 [3] | LC50 [4] | LC50 (mg/L) at 95% [1] |
| --- | --- | --- | --- | --- | --- | --- | --- |
| O=C(NC(=O)c1c(F)cccc1F)Nc1ccc(Cl)cc1 [Diflubenzuron, reference compound] | 100% | 520.0 mg/L (≈ 1670 µM) | 100% | 1540.5 mg/L (≈ 4960 µM) | 45.2 mg/L (≈ 145 µM) | 144 mg/L (≈ 464 µM) | – |
| O=C(NC(=S)Nc1ncccn1)c1cc([N+](=O)[O-])cc([N+](=O)[O-])c1 [Compound 1, 3,5-dinitro-N-(pyrimidin-2-ylcarbamothioyl)benzamide] | 23.7% | 1713.2 mg/L (≈ 4920 µM) | 33.4% | 4020.4 mg/L (≈ 11500 µM) | 190 mg/L (≈ 546 µM) | ~430 mg/L (≈ 1240 µM) | about 190.0 mg/L |
